From patent US4731486A, “Hydroformylation using low volatile phosphine ligands” (Union Carbide Corporation, priority 1986, dated 1988)
Structures can show the parent of a compound that is named as a salt.

Assays:
[1] = Batch hydroformylation of propylene in stirred autoclave (Examples 1, 2, 11, 14, 19); details: 200 ppm Rh, about 120 mole equivalents ligand, 100° C., 90 psia 1:1:1 H2:CO:C3H6
Method: A series of various rhodium complex catalyst precursor solutions consisting essentially of the solubilized reaction product of rhodium dicarbonyl acetylacetonate and various monosulfonated triphenylphosphine metal salt ligands were prepared and employed to hydroformylate propylene into C4 aldehydes in the following manner.
Each rhodium catalytic precursor solution so prepared was then employed to hydroformylate propylene in a magnetically stirred, 100 mL capacity, stainless steel autoclave which was attached to a gas manifold for introducing gases to the desired partial pressures. The autoclave was also equipped with a pressure calibrator for determining reaction pressure to ±0.01 psia. and a platinum resistance thermometer for determining reactor solution temperatures to ±0.10° C. The reactor was heated externally by two 300 watt heating bands. The reactor solution temperature was controlled by a platinum resistance sensor connected to an external proportional temperature controller for controlling the temperature of the external band heaters.
In each non-aqueous hydroformylation reaction, about 15 milliliters (about 14 grams) of the rhodium catalytic precursor solution so prepared was charged to the autoclave reactor under nitrogen and heated to the reaction temperature employed (as given in Table 1 below). The reactor was then vented down to 5 psig. and a premixed gas mixture of 1:1:1 carbon monoxide:hydrogen:propylene was introduced into the reactor via the gas manifold (partial pressures given in Table 1) and the propylene so hydroformylated.
A comparison of the catalytic activity of aqueous and non-aqueous solutions of monosulfonated triphenylphosphine sodium salt ligand promoted catalysts in hydroformylating various molecular weight alphe-olefins was determined as follows.
Both the aqueous and non-aqueous hydroformylation reactions were conducted under identical conditions with regard to temperature, rhodium and ligand concentration, hydrogen and carbon monoxide partial pressure and olefin concentration.

[2] = Continuous hydroformylation of propylene (Example 8); details: Texanol/PEG-600 8:1
[3] = Solubility of metal salt ligands in different aldehydes; type: physicochemical
[4] = Solubility of metal salt ligands in nonanal with added solubilizing agent; type: physicochemical; details: 25° C.; nonanal with 1:4 CARBOWAX TPEG-900/TERGITOL NP-9
[5] = day 1.0, 99 °C, CO 33, H2 53, C3H6 17 psia
[6] = day 2.0, 106 °C, CO 28, H2 54, C3H6 18 psia
[7] = day 3.0, […], CO 23, H2 55, C3H6 19 psia
[8] = day 4.0, […], CO 23, H2 55, C3H6 19 psia
[9] = day 4.9, 104 °C, CO 23, H2 55, C3H6 19 psia
[10] = day 5.8, 103 °C, CO 23, H2 55, C3H6 20 psia
[11] = day 6.7, 98 °C, CO 24, H2 56, C3H6 20 psia

O=S(=O)(O)c1cccc(P(c2ccccc2)c2ccccc2)c1 [TPPMS-Rb, monosulfonated triphenylphosphine rubidium salt]
Linear/Branched Aldehyde Mole Ratio ([1]; Texanol/Carbowax PEG-600: Li 100:0, K 9:1, Rb 8:1, Ca 20:1, Ba 7:1): 5.6 | Reaction Rate (C4 aldehydes) ([1]; Texanol/Carbowax PEG-600: Li 100:0, K 9:1, Rb 8:1, Cs 7:1, Ca 20:1, Ba 7:1, Sr 18:1): 0.70 Gmoles/L/Hr | Linear/Branched Aldehyde Mole Ratio [2, 5]: 5.15 | Rate (C4 aldehydes), daily average [2, 5]: 1.01 gmoles/L/Hr | Linear/Branched Aldehyde Mole Ratio [2, 6]: 6.19 | Rate (C4 aldehydes), daily average [2, 6]: 1.24 gmoles/L/Hr | Linear/Branched Aldehyde Mole Ratio [2, 7]: 5.86 | Rate (C4 aldehydes), daily average [2, 7]: 0.68 gmoles/L/Hr | Linear/Branched Aldehyde Mole Ratio [2, 8]: 6.04 | Rate (C4 aldehydes), daily average [2, 8]: 0.58 gmoles/L/Hr | Linear/Branched Aldehyde Mole Ratio [2, 9]: 6.12 | Rate (C4 aldehydes), daily average [2, 9]: 0.58 gmoles/L/Hr | Linear/Branched Aldehyde Mole Ratio [2, 10]: 6.45 | Rate (C4 aldehydes), daily average [2, 10]: 0.58 gmoles/L/Hr | Linear/Branched Aldehyde Mole Ratio [2, 11]: 6.60 | Rate (C4 aldehydes), daily average [2, 11]: 0.41 gmoles/L/Hr | Metal Salt Solubility ([3]; Butyraldehyde, 60 °C): 1.4 Wt. % | Metal Salt Solubility ([3]; Heptanal, 80 °C): 3.8 Wt. % | Metal Salt Solubility ([3]; Nonanal, 80 °C): 0.9 Wt. % | Metal Salt Solubility ([3]; Propionaldehyde, 35 °C): 6.6 Wt. % | Metal Salt Solubility ([3]; Tridecanal, 80 °C): 0.5 Wt. % | Metal Salt Solubility ([3]; Valeraldehyde, 80 °C): 3.3 Wt. % | Metal Salt Solubility [4]: 25 Wt. %
